Data set [1] can be described thus: Stability of QC samples in aCSF (freeze-thaw, room temperature). The format is physicochemical. The following applies: percentage remaining, n = 5; for Stability room temperature: room temperature 24 h; for Stability Freeze-thaw: three freeze-thaw cycles.
A short description of data set [2]: Stability of QC samples in rat brain homogenate (freeze-thaw, room temperature). It is filed as physicochemical. As to conditions: percentage remaining, n = 5; for Stability room temperature: room temperature 24 h; for Stability Freeze-thaw: three freeze-thaw cycles.
Data set [3] can be described thus: Rat CSF distribution after oral administration of APRE (UPLC-MS/MS). The following applies: for AUC(0-inf) / AUC(0-t) / Cmax / Tmax / half-life: CSF, po, 4 g/kg; for MRM response in CSF: rat CSF after oral APRE.
Description: Aliquots of 50 μL CSF samples with IS (10 μL, 200 ng/mL) were extracted with 600 μL ethyl acetate.
The UPLC-MS/MS system consisted of a Shimadzu Nexera UPLC instrument connected to a Shimadzu LCMS-8050 mass spectrometer via the electrospray ionization interface (Shimadzu Corp., Kyoto, Japan). Samples were separated on an ACQUITY UPLC BEH RP18 column (2.1 × 100 mm, 1.7 µm, Waters, Milford, MA, USA) equipped with a BEH RP18 guard column (2.1 × 5 mm, 1.7 µm, Waters, Milford, MA, USA). The column temperature was 30 °C, and the flow rate was 0.4 mL/min. The sample injection volume was 5 µL. The mobile phases consisted of 0.1% (v/v) formic acid in water (A) and ACN (B). […] The precursor ion, product ion, Q1, Q3, CE and DT were optimized.
(§1) The time schedule included 9 time-points, and six rats were sampled at each time-point. The rats were fasted overnight with free access to water before the experiment. APRE was suspended with the normal saline and orally administered to the rats at a single dose of 4 g/kg. The animals had free access to water during the experiment.
Rats were anesthetized by an intraperitoneal dose of chloral hydrate (350 mg/kg) at 0.25, 0.5, 1, 1.5, 2, 4, 6, 8, 12 h after oral administration of APRE. A dorsal midline cutaneous incision was made, and the muscle at the craniocervical junction was bluntly dissected to expose the atlanto-occipital membrane. The cisterna magna was punctured with a thin syringe needle, and a microinjector connected with the needle was used to collect the interior CSF carefully [27]. Clear CSF was transferred to a clean microtube and frozen at −80 °C until further use. Blood contaminated samples were excluded.
(§2) Results were expressed as the mean ± standard deviation (SD). The UPLC-MS/MS data were processed with Labsolutions 5.65 software (Shimadzu Corp., Kyoto, Japan). The pharmacokinetic parameters were calculated with the Drug and Statistics 2.0 software (Mathematical Pharmacology Professional Committee of China, Shanghai, China).
The nature of data set [4]: Rat brain distribution after oral administration of APRE (UPLC-MS/MS). As to conditions: for AUC0→t / AUC0→∞ / CLz/F / Vz/F: rat brain, oral APRE 4 g/kg, mean ± SD, n = 6; for Tmax / half-life / Kp / log BBexpt.: rat; for Tmax / half-life: brain; for Tmax / half-life / Kp: po, 4 g/kg; for Kp: brain/plasma; for log BBexpt.: log (AUC0→∞/brain/AUC0→∞/plasma), oral APRE.
Description: Each weighed brain sample was homogenized with a 2-fold volume of normal saline solution. IS solution (10 μL, 200 ng/mL) was added to 300 μL of the homogenate. The mixture was then extracted with a 3-fold volume of ethyl acetate. The mixture was vortexed for 1 min and centrifuged at 16,000× g for 10 min. The supernatant was transferred out and dried under a gentle constant flow of nitrogen. The residue was then dissolved with 100 μL of MeOH and ultrasonically (power 250 W, frequency 40 KHz) extracted for 10 min. After centrifugation at 16,000× g for 10 min, the supernatant was drawn out into a clean vial, and 5 μL of each were injected into the UPLC–MS/MS system for analysis.
The UPLC-MS/MS system consisted of a Shimadzu Nexera UPLC instrument connected to a Shimadzu LCMS-8050 mass spectrometer via the electrospray ionization interface (Shimadzu Corp., Kyoto, Japan). Samples were separated on an ACQUITY UPLC BEH RP18 column (2.1 × 100 mm, 1.7 µm, Waters, Milford, MA, USA) equipped with a BEH RP18 guard column (2.1 × 5 mm, 1.7 µm, Waters, Milford, MA, USA). The column temperature was 30 °C, and the flow rate was 0.4 mL/min. The sample injection volume was 5 µL. The mobile phases consisted of 0.1% (v/v) formic acid in water (A) and ACN (B). The LC gradient elution program and mass working parameters were the same as our previous report [6]. […] The precursor ion, product ion, Q1, Q3, CE and DT were optimized.
as §1
Cardiac perfusion was carried out quickly with physiological saline after CSF collection at each time-point. The rat brains were separated, weighed and then stored at −80 °C until treatment.
as §2

Molecules are shown by their SMILES.

For `O=c1ccc2cc3ccoc3cc2o1` [Compound 1, psoralen], in data set [1] (aCSF QC 10 ng/mL), the Stability room temperature came out at 97.19±5.40% and the “Stability Freeze-thaw” value is listed as 96.14±6.21%. Also, in data set [1] (aCSF QC 40 ng/mL), the Stability room temperature is recorded as 98.36±3.57% and the “Stability Freeze-thaw” value is 96.98±5.79%. In data set [1] (aCSF QC 80 ng/mL), the Stability room temperature came to 94.12±6.94% and the “Stability Freeze-thaw” value is 86.27±13.45%. Moreover, in data set [2] (rat brain QC 10 ng/mL), the Stability room temperature stood at 101.36±7.46% and the “Stability Freeze-thaw” value was 97.11±8.58%. Also, in data set [2] (rat brain QC 80 ng/mL), the Stability room temperature is 99.53±12.87% and the “Stability Freeze-thaw” value is listed as 96.22±7.77%. Also, in data set [2] (rat brain QC 160 ng/mL), the Stability room temperature was 96.99±3.28% and the “Stability Freeze-thaw” value is reported as 96.30±8.22%. Also, the “total amount percentage of CSF/plasma” value in data set [3] ((0.48 × AUC0→∞/CSF)/(16 × AUC0→∞/plasma), rat, oral APRE) is listed as “greater than 1%”. Also, in data set [3] (rat), the AUC(0-inf) – broadly, total exposure, with the tail of the curve extrapolated – worked out at 51.3 ± 17.5 ng·h/mL; the AUC(0-t) (in general, exposure summed from dosing to a finite time, without extrapolation to infinity) was found to be 20.4 ± 6.16 ng·h/mL; the Cmax (in general, the maximum level reached in the sampled fluid or tissue) came out at 4.49 ± 1.05 ng/mL; the Tmax (usually the time at which the peak concentration occurs) is 4.67 ± 1.63 h. Further, the half-life (commonly the time needed for the level to fall by half in the phase considered) in data set [3] (rat) is 3.52 ± 2.04 h. In addition, in data set [4], the AUC0→t amounted to 351.63 ± 65.06 µg·h/kg, the “AUC0→∞” value was determined as 371.95 ± 69.76 µg·h/kg, the CLz/F was 2.88 ± 0.58 g/h/kg and the Vz/F worked out at 8.86 ± 3.08 g/kg. For the same compound, in data set [4], the Tmax stood at 0.33 ± 0.13 h; the half-life is 2.15 ± 0.67 h; the Kp – broadly, the ratio of the level in a tissue or fluid to that in plasma or blood – is 0.56.

Consider `COc1c2ccoc2cc2oc(=O)ccc12` [Compound 3, bergapten], for which, in data set [1] (aCSF QC 5 ng/mL), the Stability room temperature is on record as 106.76±8.57% and the “Stability Freeze-thaw” value was 92.34±7.48%. Further, in data set [1] (aCSF QC 40 ng/mL), the Stability room temperature is 94.61±4.23% and the “Stability Freeze-thaw” value is listed as 93.24±6.30%. Moreover, in data set [1] (aCSF QC 80 ng/mL), the Stability room temperature was determined as 99.54±7.55% and the “Stability Freeze-thaw” value is given as 97.23±5.17%. In data set [2] (rat brain QC 5 ng/mL), the Stability room temperature is listed as 88.02±2.73% and the “Stability Freeze-thaw” value is recorded as 89.97±6.29%. In data set [2] (rat brain QC 80 ng/mL), the Stability room temperature is on record as 86.01±3.16% and the “Stability Freeze-thaw” value was 85.30±8.42%. Further, in data set [2] (rat brain QC 160 ng/mL), the Stability room temperature turned out to be 86.84±6.63% and the “Stability Freeze-thaw” value turned out to be 90.70±9.46%. Further, in data set [3] (rat), the AUC(0-inf) stood at 41.3 ± 5.77 ng·h/mL, the AUC(0-t) turned out to be 27.1 ± 2.26 ng·h/mL, the concentration peaked (Cmax) at 3.95 ± 0.24 ng/mL and the Tmax was found to be 1.46 ± 0.84 h. Further, the half-life in data set [3] (rat) was 6.72 ± 1.95 h. In data set [4], the AUC0→t was found to be 418.20 ± 93.60 µg·h/kg, the “AUC0→∞” value stood at 449.85 ± 97.52 µg·h/kg, the CLz/F was determined as 3.22 ± 0.85 g/h/kg and the Vz/F amounted to 10.76 ± 4.73 g/kg. In addition, in data set [4], the Tmax amounted to 1.21 ± 1.53 h, the half-life is 2.34 ± 1.04 h and the concentration ratio (Kp) was found to be 0.08.

Take `C/C=C(/C)C(=O)OC(C)(C)[C@@H]1Cc2c(ccc3ccc(=O)oc23)O1` [Compound 7, columbianadin]: the values for the Stability room temperature in data set [2] (rat brain QC 10 ng/mL), in data set [2] (rat brain QC 80 ng/mL) and in data set [2] (rat brain QC 160 ng/mL) were 96.82±4.84%, 92.73±3.53% and 91.16±4.37%, respectively. Further, the “Stability Freeze-thaw” value was 101.64±6.63% in data set [2] (rat brain QC 10 ng/mL), 94.79±6.28% in data set [2] (rat brain QC 80 ng/mL) and 90.93±4.84% in data set [2] (rat brain QC 160 ng/mL). For the same compound, the “MRM response in CSF” value in data set [3] was “under LLOQ”. Further, in data set [4] (rat brain after oral APRE, MRM response under LLOQ at following time points), the “time after oral administration within which detected in brain” value is at most 4 h.

Turning to `CC(C)(O)[C@H](O)COc1c2ccoc2cc2oc(=O)ccc12` [Compound 8, oxypeucedanin hydrate], in data set [1] (aCSF QC 5 ng/mL), the Stability room temperature is reported as 96.96±3.22% and the “Stability Freeze-thaw” value is reported as 97.57±5.59%. For the same compound, in data set [1] (aCSF QC 40 ng/mL), the Stability room temperature was determined as 95.09±3.26% and the “Stability Freeze-thaw” value is listed as 94.73±7.34%. Besides, in data set [1] (aCSF QC 80 ng/mL), the Stability room temperature is 103.37±5.33% and the “Stability Freeze-thaw” value was found to be 95.96±5.37%. In addition, in data set [2] (rat brain QC 5 ng/mL), the Stability room temperature is reported as 97.72±9.35% and the “Stability Freeze-thaw” value is reported as 96.57±11.87%. Moreover, in data set [2] (rat brain QC 80 ng/mL), the Stability room temperature is 96.02±6.30% and the “Stability Freeze-thaw” value worked out at 94.94±10.27%. In data set [2] (rat brain QC 160 ng/mL), the Stability room temperature worked out at 97.99±6.44% and the “Stability Freeze-thaw” value was 102.42±7.10%. Also, in data set [3] (rat), the AUC(0-inf) was 73.6 ± 11.8 ng·h/mL, the AUC(0-t) was found to be 54 ± 8.2 ng·h/mL, the highest level (Cmax) was 7.47 ± 1.69 ng/mL and the Tmax was 2 ± 1.14 h. Also, in data set [3] (rat), the half-life was 6.32 ± 1.95 h. For the same compound, in data set [4], the “log BBexpt.” value is −0.16, the AUC0→t amounted to 313.39 ± 59.25 µg·h/kg, the “AUC0→∞” value stood at 397.36 ± 66.83 µg·h/kg and the CLz/F was determined as 2.04 ± 0.34 g/h/kg. In addition, in data set [4], the Vz/F is listed as 14.45 ± 3.95 g/kg, the Tmax came to 0.96 ± 0.86 h and the half-life is 4.91 ± 0.91 h.

For `COc1ccc2ccc(=O)oc2c1CC=C(C)C` [Compound 10, osthole], in data set [1] (aCSF QC 5 ng/mL), the Stability room temperature is 95.92±3.20% and the “Stability Freeze-thaw” value is 94.43±7.49%. For the same compound, in data set [1] (aCSF QC 40 ng/mL), the Stability room temperature is 94.93±5.05% and the “Stability Freeze-thaw” value was determined as 95.90±8.12%. In addition, in data set [1] (aCSF QC 80 ng/mL), the Stability room temperature was 93.50±6.38% and the “Stability Freeze-thaw” value turned out to be 97.71±2.91%. In data set [2] (rat brain QC 5 ng/mL), the Stability room temperature stood at 99.12±3.06% and the “Stability Freeze-thaw” value amounted to 95.53±4.36%. Further, in data set [2] (rat brain QC 80 ng/mL), the Stability room temperature is listed as 101.64±8.78% and the “Stability Freeze-thaw” value is 98.42±10.02%. In data set [2] (rat brain QC 160 ng/mL), the Stability room temperature worked out at 96.43±4.95% and the “Stability Freeze-thaw” value was 98.13±6.85%. Moreover, in data set [3] (rat), the area under the curve AUC(0-inf) was 30.5 ± 1.53 ng·h/mL, the AUC(0-t) stood at 27.7 ± 2.88 ng·h/mL, the Cmax is 4.31 ± 1.49 ng/mL and the Tmax was 2.83 ± 2.84 h. In data set [3] (rat), this compound gave a half-life of 3.19 ± 1.16 h. In data set [4], the AUC0→t amounted to 1327.91 ± 341.99 µg·h/kg, the “AUC0→∞” value came to 2105.63 ± 1100.15 µg·h/kg, the CLz/F is listed as 13.96 ± 7.04 g/h/kg and the Vz/F was found to be 60.18 ± 25.11 g/kg. Besides, in data set [4], the Tmax was found to be 0.35 ± 0.14 h, the half-life is 5.36 ± 2.15 h and the Kp is 0.15.

For `COc1ccc2ccc(=O)oc2c1CC(O)C(C)(C)O` (stereo not shown) [Compound 11, Meranzin hydrate], in data set [1] (aCSF QC 5 ng/mL), the Stability room temperature turned out to be 92.02±3.40% and the “Stability Freeze-thaw” value was 96.16±10.07%. For the same compound, in data set [1] (aCSF QC 120 ng/mL), the Stability room temperature is reported as 99.09±5.56% and the “Stability Freeze-thaw” value is given as 95.58±7.24%. In data set [1] (aCSF QC 240 ng/mL), the Stability room temperature is 103.10±9.99% and the “Stability Freeze-thaw” value is reported as 94.40±4.03%. In data set [2] (rat brain QC 5 ng/mL), the Stability room temperature amounted to 97.21±8.86% and the “Stability Freeze-thaw” value was determined as 94.71±4.63%. Further, in data set [2] (rat brain QC 200 ng/mL), the Stability room temperature was found to be 96.58±7.80% and the “Stability Freeze-thaw” value is listed as 97.28±10.13%. Further, in data set [2] (rat brain QC 400 ng/mL), the Stability room temperature is on record as 95.82±9.16% and the “Stability Freeze-thaw” value stood at 104.50±7.46%. For the same compound, in data set [3] (rat), the AUC(0-inf) was determined as 754 ± 142 ng·h/mL, the exposure AUC(0-t) was 676 ± 108 ng·h/mL, the Cmax stood at 129 ± 20.2 ng/mL and the Tmax is 2.17 ± 0.98 h. This compound showed a half-life in data set [3] (rat) of 3.37 ± 0.75 h. Moreover, in data set [4], the “log BBexpt.” value was −0.10, the AUC0→t was found to be 1752.16 ± 249.82 µg·h/kg, the “AUC0→∞” value amounted to 1948.10 ± 305.84 µg·h/kg and the CLz/F was found to be 0.86 ± 0.13 g/h/kg. For the same compound, in data set [4], the Vz/F is on record as 4.46 ± 1.60 g/kg, the Tmax was 1.29 ± 1.5 h and the half-life was 3.64 ± 1.4 h.

On to `O=c1ccc2c(O)c3ccoc3cc2o1` [bergaptol], for which the “MRM response in CSF” value in data set [3] was “under LLOQ”. In data set [4] (rat brain after oral APRE), the “MRM response in brain” value is recorded as “under LLOQ”.

`O=c1ccc2ccc(O)cc2o1` [umbelliferone]: in data set [3], the “MRM response in CSF” value is on record as “under LLOQ”. In addition, the “MRM response in brain” value in data set [4] (rat brain after oral APRE) was “under LLOQ”.

These data come from article PMC6017000, “Distribution Assessments of Coumarins from Angelicae Pubescentis Radix in Rat Cerebrospinal Fluid and Brain by Liquid Chromatography Tandem Mass Spectrometry Analysis” (Molecules : A Journal of Synthetic Chemistry and Natural …, 2018).
